The record followed here is patent US4515708A, “Corrosion inhibitors” (Exxon Research & Engineering Co., priority 1982, dated 1985).

Series [1] is described as follows: Solubility Test (35 wt% solution in isopropylalcohol shaken with water, brine or heptane). Type of series: physicochemical. How it is done: The active material under test was made up into a 35 wt% solution in isopropylalcohol (IPA). 0.3 ml of this solution was shaken with 10 ml of each of the liquids in which solubility is to be tested: water, 5 wt% NaCl solution (brine) and heptane. The mixture was observed after 30 minutes and 24 hours.

Series [2] is described as follows: Emulsion Test (3 wt% brine / heptane). The note with it: for Time to break emulsion: 1 ml of 35 wt% IPA solution, 50 ml 3 wt% brine, 50 ml heptane; for Appearance after 30 mins, hydrocarbon: hydrocarbon layer; for Appearance after 30 mins, hydrocarbon / Appearance after 30 mins, water: 50 ml 3 wt% brine/50 ml heptane; for Appearance after 30 mins, water: water layer. Type of series: physicochemical. How it is done: 1 ml of the solutions used for Test A was shaken with 50 ml of 3 wt% brine and 50 ml of heptane for 1 minute in a 150 ml bottle. The emulsion was observed, and the time noted for the emulsion to break and form a clean interface with clear liquid layers. If at 30 minutes this had not occurred, the appearance was recorded together with the thickness of any persisting emulsion.

The nature of series [3]: Corrosion Test 1 (dynamic wheel test; 3 wt% brine/Mentor 28; CO2 + H2S). The note with it: 24 h, 70° C. As to the method:
(§1) For each compound three mild steel coupons (approximately 100 mm×12 mm×1.5 mm) were tested at each concentration. Each was contacted in a 250 ml bottle with 200 ml of a test fluid either saturated with a carbon dioxide at 20° C. or containing 100 ppm hydrogen sulphide or having both CO2 and H2 S present in those amounts. The test fluid was treated with a 30% aqueous solution of the compound under test at 2, 10, 50 and 250 ppm except where indicated to the contrary. The coupon was subjected to a dynamic wheel test in which the bottle was mounted radially on the periphery of 650 mm diameter wheel which was rotated at about 40 rpm for 24 hours at 70° C. The weight loss was obtained, and also measured in a control experiment where no inhibitor was present. From this the % protection was calculated as % reduction in weight loss.
Test fluid: 100 ml 3 wt% brine/100 ml Mentor 28 (Mentor®28 is a depolarised kerosene available from Exxon Chemical Company)
(§2) Corrosives: Saturated CO2 +100 ppm H2 S

Series [4] in a line: Corrosion Test 2 (dynamic wheel test; 3 wt% brine; CO2 + H2S). As to conditions: 24 h, 70° C. How it is done: as §1
Test Fluid: 200 ml 3 wt% brine
as §2

Series [5] can be described thus: Corrosion Test 3 (dynamic wheel test; 3 wt% brine + Mentor 28; CO2 only). The note with it: 24 h, 70° C. As to the method:
as §1
(§3) Test fluid: 100 ml 3 wt% brine+100 ml Mentor 28
Corrosives: Saturated CO2 only

A short description of series [6]: Corrosion Test 4 (dynamic wheel test; 3 wt% brine + Mentor 28; H2S). The note with it: 24 h, 70° C. How it is done:
as §1, §3
Corrosives: 100 ppm H2 S (prior nitrogen purge)

Series [7] is described as follows: Film persistency corrosion test. As to conditions: CO2 + H2S, 24 h, 70° C. As to the method: […] A test fluid made up of equal proportions of 3 wt% brine and Mentor 28 was used, saturated with CO2 and containing 100 ppm H2 S as corrosives. Coupons were used as described for the previous corrosion test. A coupon was first immersed in test fluid containing corrosives and the inhibitor under test for 1 hour, then rinsed for 1 hour in a similar test fluid containing no inhibitor and finally transferred to a further test fluid again containing no inhibitor in which the dynamic wheel test was carried out at 70° C. for 24 hours.

Where [8] appears, read: 0.3 ml of 35 wt% IPA solution in 10 ml 5 wt% NaCl solution, 30 minutes and 24 hours.
[9] abbreviates: 0.3 ml of 35 wt% IPA solution in 10 ml water, observed after 30 minutes and 24 hours.
Where [10] appears, read: 0.3 ml of 35 wt% IPA solution in 10 ml heptane, 30 minutes and 24 hours.

Where two headings read alike, the source gives them in different places.

On to `NCCNCCNCCc1ccncc1` [Example 34], for which, in series [1] (setting [8]), the “SOLUBILITY IN: Brine” value is “S”. Besides, in series [1] (setting [9]), the “SOLUBILITY IN: Water” value is recorded as “S”. Also, the “Time to break emulsion” value in series [2] was 1 min. The “Appearance after 30 mins, hydrocarbon” value in series [2] was “clear”. Moreover, in series [2], the “Appearance after 30 mins, water” value is on record as “clear”. Besides, the “% Protection” value amounted to 22% in series [3] (2 ppm, 30% solution); 50% in series [3] (10 ppm, 30% solution); 66% in series [3] (50 ppm, 30% solution); 80% in series [3] (250 ppm, 30% solution); 18% in series [4] (2 ppm); 26% in series [4] (10 ppm). Further, the “% Protection” value in series [4] (50 ppm) was 48%; in series [4] (250 ppm), 69%; in series [5] (2 ppm) it was 6%; in series [5] (10 ppm), 11%; in series [5] (50 ppm) it was 13%; in series [5] (250 ppm) it was 18%. Moreover, the “% Protection” value in series [6] (2 ppm) worked out at 20%; in series [6] (10 ppm) it was 45%; in series [6] (50 ppm) it was 62%; in series [6] (250 ppm) it was 67%.

Take `CCCCCCNCCc1ccccn1` [Example 1]: the “SOLUBILITY IN: Brine” value in series [1] is on record as “S”. The “SOLUBILITY IN: Heptane” value in series [1] was “S”. Besides, the “SOLUBILITY IN: Water” value in series [1] is given as “S”. Moreover, the “Time to break emulsion” value in series [2] was found to be 30 min. Further, in series [2], the “Appearance after 30 mins, hydrocarbon” value is “clear”. Also, the “Appearance after 30 mins, water” value in series [2] is listed as “clear”. For the same compound, the “% Protection” value came out at 15% in series [3] (2 ppm, 30% solution); 73% in series [3] (10 ppm, 30% solution); 79% in series [3] (50 ppm, 30% solution); 91% in series [3] (250 ppm, 30% solution); 13% in series [4] (2 ppm); 57% in series [4] (10 ppm). In addition, the “% Protection” value in series [4] (50 ppm) was found to be 83%; in series [4] (250 ppm) it was 93%; in series [6] (2 ppm), 0%; in series [6] (10 ppm) it was 22%; in series [6] (50 ppm), 55%; in series [6] (250 ppm), 55%. Further, the “% Protection” value in series [7] (500 ppm) came to 18%; in series [7] (1000 ppm), 25%; in series [7] (5000 ppm), 17%.

In the case of `CCCCCCCCCCNCCc1ccccn1` [Example 3], in series [1] (setting [10]), the “SOLUBILITY IN: Heptane” value is given as “S”. Moreover, the “SOLUBILITY IN: Water” value in series [1] (setting [9]) is listed as “S”. Moreover, in series [2], the “Time to break emulsion” value is greater than 30 min. For the same compound, the “Appearance after 30 mins, hydrocarbon” value in series [2] is given as “hazy”. Further, in series [2], the “Appearance after 30 mins, water” value is on record as “hazy”. Further, the “% Protection” value in series [3] (2 ppm, 30% solution) came out at 13%; in series [3] (10 ppm, 30% solution) it was 63%; in series [3] (50 ppm, 30% solution), 82%; in series [3] (250 ppm, 30% solution), 99%; in series [4] (2 ppm), 7%; in series [4] (10 ppm), 37%. Moreover, the “% Protection” value in series [4] (50 ppm) is on record as 91%; in series [4] (250 ppm) it was 97%; in series [6] (2 ppm), 0%; in series [6] (10 ppm), 42%; in series [6] (50 ppm), 65%; in series [6] (250 ppm) it was 76%.

For the compound `NCCNCCNCCc1ccccn1` [Example 15], the “SOLUBILITY IN: Brine” value in series [1] (setting [8]) is “S”. Also, in series [1] (setting [9]), the “SOLUBILITY IN: Water” value is on record as “S”. The “Time to break emulsion” value in series [2] is 10 min. For the same compound, the “Appearance after 30 mins, hydrocarbon” value in series [2] was “clear”. The “Appearance after 30 mins, water” value in series [2] was “clear”. In addition, the “% Protection” value worked out at 32% in series [3] (2 ppm, 30% solution); 72% in series [3] (10 ppm, 30% solution); 80% in series [3] (50 ppm, 30% solution); 87% in series [3] (250 ppm, 30% solution); 22% in series [4] (2 ppm); 63% in series [4] (10 ppm). Moreover, the “% Protection” value in series [4] (50 ppm) came out at 81%; in series [4] (250 ppm) it was 87%; in series [7] (500 ppm), 13%; in series [7] (1000 ppm), 11%; in series [7] (5000 ppm) it was 17%.

Turning to `NCCNCCNCCNCCc1ccncc1` [Example 35], the “SOLUBILITY IN: Brine” value in series [1] (setting [8]) was “S”. The “SOLUBILITY IN: Water” value in series [1] (setting [9]) is reported as “S”. In addition, in series [2], the “Time to break emulsion” value is 1 min; the “Appearance after 30 mins, hydrocarbon” value is recorded as “clear”; the “Appearance after 30 mins, water” value is recorded as “clear”. Besides, the “% Protection” value in series [7] (500 ppm) came out at 19%. In addition, the “% Protection” value in series [7] (1000 ppm) came out at 18%. Also, in series [7] (5000 ppm), the “% Protection” value is 20%.

For the compound `NCCNCCc1ccccn1` [Example 13], the “SOLUBILITY IN: Brine” value in series [1] (setting [8]) was “S”. Also, in series [1] (setting [10]), the “SOLUBILITY IN: Heptane” value was “S”. Also, in series [1] (setting [9]), the “SOLUBILITY IN: Water” value is recorded as “S”. Further, the “Time to break emulsion” value in series [2] was greater than 30 min. The “Appearance after 30 mins, hydrocarbon” value in series [2] is “clear”. In series [2], the “Appearance after 30 mins, water” value was “hazy”. Besides, the “% Protection” value in series [3] (2 ppm, * active material added as undiluted compound) turned out to be 43%; in series [3] (10 ppm, * active material added as undiluted compound), 67%; in series [3] (50 ppm, * active material added as undiluted compound), 82%; in series [3] (250 ppm, * active material added as undiluted compound), 92%; in series [4] (2 ppm), 40%; in series [4] (10 ppm) it was 42%. In addition, the “% Protection” value is given as 74% in series [4] (50 ppm); 89% in series [4] (250 ppm); 0% in series [5] (2 ppm); 10% in series [5] (10 ppm); 19% in series [5] (50 ppm); 23% in series [5] (250 ppm). For the same compound, the figures for the “% Protection” value in series [6] (10 ppm) and in series [6] (250 ppm) were 40% and 57%, respectively.

Consider `CCCCCCCCCCCCCCCCCCNCCc1ccccn1` [Example 7], for which the “SOLUBILITY IN: Heptane” value in series [1] (setting [10]) is “S”. The “SOLUBILITY IN: Water” value in series [1] (setting [9]) is on record as “S”. In addition, the “Time to break emulsion” value in series [2] was greater than 30 min. In addition, the “Appearance after 30 mins, hydrocarbon” value in series [2] is on record as “emulsified”. Also, in series [2], the “Appearance after 30 mins, water” value is “clear”. Further, the “% Protection” value is recorded as 13% in series [3] (2 ppm, 30% solution); 52% in series [3] (10 ppm, 30% solution); 87% in series [3] (50 ppm, 30% solution); 95% in series [3] (250 ppm, 30% solution); 81% in series [4] (2 ppm); 89% in series [4] (10 ppm). The “% Protection” value in series [4] (50 ppm) is 99%; in series [4] (250 ppm), 99%; in series [5] (2 ppm), 2%; in series [5] (10 ppm) it was 22%; in series [5] (50 ppm) it was 48%; in series [5] (250 ppm) it was 67%. Further, the “% Protection” value in series [7] (500 ppm) is reported as 13%; in series [7] (1000 ppm), 10%; in series [7] (5000 ppm) it was 19%.

Regarding `NCCNCCNCCNCCc1ccccn1` [Example 16], the “SOLUBILITY IN: Brine” value in series [1] (setting [8]) is given as “S”. In addition, the “SOLUBILITY IN: Heptane” value in series [1] (setting [10]) is reported as “S/D”. Also, the “SOLUBILITY IN: Water” value in series [1] (setting [9]) was “S”. For the same compound, the “Time to break emulsion” value in series [2] worked out at 10 min. Further, the “Appearance after 30 mins, hydrocarbon” value in series [2] is reported as “clear”. In series [2], the “Appearance after 30 mins, water” value was “clear”. Also, the “% Protection” value in series [3] (2 ppm, 30% solution) was 32%; in series [3] (10 ppm, 30% solution), 72%; in series [3] (50 ppm, 30% solution) it was 81%; in series [3] (250 ppm, 30% solution), 89%; in series [4] (2 ppm) it was 37%; in series [4] (10 ppm), 59%. Besides, the “% Protection” value in series [4] (50 ppm) came out at 81%; in series [4] (250 ppm), 89%; in series [6] (2 ppm), 10%; in series [6] (10 ppm), 48%; in series [6] (50 ppm) it was 56%; in series [6] (250 ppm), 61%.
